Publication PMC4434089 (Biotechnology, Biotechnological Equipment, 2014)
Marks after values point to notes of the source that are not given here.

What was measured:
[1] = tested on: amylin-mediated cytotoxicity; design: method as in PMID 20093026; details: cited from earlier work
[2] = tested on: amylin; assay: NTA of amylin aggregation, alone or with amylin derivatives; assay type: biochemical, human; details: for implied effect on fibrillogenesis of amylin: NTA compared with previously published reports; for Concentration of aggregates 100–150 nm, 10 min / Concentration of aggregates 200–300 nm, 10 min / Concentration of aggregates 150–200 nm, 10 min / Concentration of aggregates 100–150 nm, 24 h / Concentration of aggregates 200–300 nm, 24 h / Concentration of aggregates 150–200 nm, 24 h: 37 °C, amylin 50 μmol L^−1 alone (A) or with 250 μmol L^−1 derivative, pH 7.4, duplicate; for Concentration of aggregates 100–150 nm, 10 min: 10 mmol L^−1 sodium phosphate, 50 mmol L^−1 NaCl; for Concentration of aggregates 100–150 nm, 10 min / Concentration of aggregates 150–200 nm, 10 min: p < 0.05 less than A: n1, n5, m5; for Concentration of aggregates 200–300 nm, 10 min: p < 0.05 less than A: n1, n3, n5, m1, m2, m3, m4, m5; for Concentration of aggregates 100–150 nm, 24 h: p < 0.05 less than A: n1, n2, m5, significantly more: m2; for Concentration of aggregates 200–300 nm, 24 h: p < 0.05 less than A: n1, n2, n3, n4, n5, m5; for Concentration of aggregates 150–200 nm, 24 h: p < 0.05 less than A: n1, n2, n5, m5; for number of 200–300 nm aggregates at 24 h vs amylin only: amylin:derivative 50:250 μmol L^−1, p < 0.05; for effect on amylin aggregation over 24 h: all size ranges, amylin:derivative 50:250 μmol L^−1, vs amylin only; for concentration of 200–300 nm aggregates, with derivative: similar to or more than amylin only
Protocol: NTA measurements were performed with a NanoSight LM20 instrument (NanoSight, United Kingdom) equipped with a 640 nm laser and a temperature controlled sample chamber. […] The sample temperature was maintained at 37 °C for the entire duration of the experiment. These experimental conditions were similar to that used for a previously reported cytotoxicity experiment,[73] thus allowing correlation of results obtained from the two techniques. […] Once again, samples were maintained at 37 °C and 60 s video footage were recorded every 10 min for the first hour and then at 24 h. All videos were captured with the single shutter and gain modes. Analysis was performed using NanoSight NTA version 2.2 software with a viscosity setting of 0.70.

Substance | reduction of amylin-mediated cytotoxicity [1] | implied effect on fibrillogenesis of amylin [2] | Concentration of aggregates 100–150 nm, 10 min ([2]; NTA, 10 min) | Concentration of aggregates 200–300 nm, 10 min ([2]; NTA, 10 min) | Concentration of aggregates 150–200 nm, 10 min ([2]; NTA, 10 min) | Concentration of aggregates 100–150 nm, 24 h ([2]; NTA) | Concentration of aggregates 200–300 nm, 24 h ([2]; NTA) | Concentration of aggregates 150–200 nm, 24 h ([2]; NTA) | number of 200–300 nm aggregates at 24 h vs amylin only ([2]; NTA) | effect on amylin aggregation over 24 h ([2]; NTA) | concentrations of 100–150, […]–200 and 200–300 nm aggregates at 10 min vs amylin only ([2]; NTA, 10 min, amylin:derivative 50:250 μmol L^−1, unpaired t-test) | inhibitory effect on amylin-mediated cytotoxicity [1] | concentration of 200–300 nm aggregates, with derivative ([2]; NTA)
STNVGS [n5] | more than 40% | increase fibrillogenesis of amylin to an aggregate that is larger than 1000 nm | 0.1* ×10^7 aggregates/mL | 0.5* ×10^7 aggregates/mL | 0.1* ×10^7 aggregates/mL | 2.4 ×10^7 aggregates/mL | 2.0* ×10^7 aggregates/mL | 1.4* ×10^7 aggregates/mL | significantly lower than in samples containing amylin only | small amount of aggregates of all size ranges which increases only marginally over 24 h |  |  | 
NTAT [n1] | more than 40% | inhibit fibrillogenesis | 0.5* ×10^7 aggregates/mL | 0.4* ×10^7 aggregates/mL | 0.5* ×10^7 aggregates/mL | 0.9* ×10^7 aggregates/mL | 0.8* ×10^7 aggregates/mL | 1.1* ×10^7 aggregates/mL | significantly lower than in samples containing amylin only | significantly less than that observed in samples containing disaggregated amylin only |  |  | 
TQRLA [n2] | more than 40% | increase fibrillogenesis of amylin to an aggregate that is larger than 1000 nm | 4.3 ×10^7 aggregates/mL | 3.4 ×10^7 aggregates/mL | 2.5 ×10^7 aggregates/mL | 1.5* ×10^7 aggregates/mL | 2.1* ×10^7 aggregates/mL | 1.5* ×10^7 aggregates/mL | significantly lower than in samples containing amylin only |  | not significantly different |  | 
STNVGS* [m5] | more than 40% | inhibit fibrillogenesis | 0.9* ×10^7 aggregates/mL | 0.8* ×10^7 aggregates/mL | 0.8* ×10^7 aggregates/mL | 1.6* ×10^7 aggregates/mL | 1.4* ×10^7 aggregates/mL | 1.3* ×10^7 aggregates/mL | significantly lower than in samples containing amylin only | significantly fewer amylin aggregates of all size ranges |  |  | 
NFGAIL* [m4] |  |  | 2.7 ×10^7 aggregates/mL | 1.6* ×10^7 aggregates/mL | 1.5 ×10^7 aggregates/mL | 4.1 ×10^7 aggregates/mL | 3.3 ×10^7 aggregates/mL | 2.8 ×10^7 aggregates/mL |  |  |  | not to have an inhibitory effect on amylin-mediated cytotoxicity | ≥ 2.7 × 10^7 aggregates per millilitre
FLVHSS* [m3] |  |  | 2.1 ×10^7 aggregates/mL | 2.1* ×10^7 aggregates/mL | 1.6 ×10^7 aggregates/mL | 5.9 ×10^7 aggregates/mL | 4.7 ×10^7 aggregates/mL | 3.9 ×10^7 aggregates/mL |  |  |  | not to have an inhibitory effect on amylin-mediated cytotoxicity | ≥ 2.7 × 10^7 aggregates per millilitre
